Test results: patent US10441662B2, “Polymer, method for producing polymer, and drug conjugate” (Kawasaki Institute of Industrial Promotion, priority 2016, dated 2019)
Counter-ions that a name gives are not always drawn. Like-named read-outs stand apart in the source and are kept apart here.

Legend:
[1] = system: PC14 strain; assay: Cytotoxicity test against lung cancer cells, PC14
Experimental: (§1) The cytotoxicity test was performed on the K252a-H bonded aromatic polymer micelle and the K252a-H bonded aliphatic polymer micelle using the lung cancer cell strains listed in Table 4.
(§2) 2000 cells/50 μL of a cell solution was adjusted to have an appropriate amount, and 50 μL of the solution was each seeded to the […] of a 96-well plate. Only a culture medium (DMEM culture medium containing 10% FBS) was added to the raw 1. After the seeding, the 96-well plate was incubated for 24 hours.
(§3) 300 μL of a culture medium was added to each of 10 wells of the 24-well plate. 100 μL of the micelle solution was added to the well 1A of the 24-well plate and stirred by pipetting (approximately 10 times), and 100 μL of the micelle solution was transferred to the well 2B and stirred in the same manner as described above. The same operation was repeated 10 times, and micelle solutions having ten different concentrations were prepared.
(§4) 50 μL of each micelle solution adjusted in the above-described manner was added to the row 3 to the row 12 of a 96-well plate seeded with cancer cells in descending order of micelle concentrations of the solutions. Only 50 μL of a culture medium was added to the rows 1 and 2. Thereafter, the 96-well plate was incubated. After the incubation, the cells remained, the solutions in the wells were removed, and the cells in each well were washed with 200 μL of the culture medium. Finally, 100 μL of the culture medium was added to each well and the 96-well plate was incubated for 48 hours.
(§5) After 48 hours, 10 μL of a cell counting kit-8 solution (DOJINDO) was added to each well. The 96-well plate was incubated again, and the absorbance at a wavelength of 450 nm was measured after 30 minutes, 1 hour, and 2 hours.
The PC14.PE6 strain is a cancer cell strain (Yano et al., Oncology Research 9:573 to 579 (1997)) obtained by performing an operation of administering the PC14 strain to the tail vein of a mouse and establishing the cancer cells metastasized to the thoracic cavity six times. […]

[2] = system: PC14.PE6 strain; assay: Cytotoxicity test against lung cancer cells, PC14.PE6
Experimental: as §1, §2, §3, §4, §5
The PC14.PE6 strain is a cancer cell strain (Yano et al., Oncology Research 9:573 to 579 (1997)) obtained by performing an operation of administering the PC14 strain to the tail vein of a mouse and establishing the cancer cells metastasized to the thoracic cavity six times. Therefore, the PC14.PE6 strain is a cancer cell strain which is extremely metastatic and malignant.

[3] = Evaluation of maximum tolerated dose (MTD) of DAVBNH; assay type: in vivo, mouse
Experimental: DAVBNH was administered to mice (BALB/c Nude, female, 6 weeks old) four times (0 day, 3rd day, 6th day, 9th day) […], and the maximum tolerated dose (MTD) was evaluated. The administration groups were prepared as follows, and the number of mice in each group was set to 3.
Administration group 1: 3 mg/kg of DAVBNH
Administration group 2: 4 mg/kg of DAVBNH
Administration group 3: 6 mg/kg of DAVBNH

[4] = Evaluation of maximum tolerated dose (MTD) of drug conjugate; assay type: in vivo, mouse
Experimental: The drug was administered to mice (BALB/c Nude, female, 6 weeks old) four times (0 day, 3rd day, 6th day, 9th day) […], and the maximum tolerated dose (MTD) was evaluated. The administration groups were prepared as follows, and the number of mice in each group was set to 5.
Administration group 1: PBS (control)
Administration group 2: 2 mg/kg of DAVBNH (VinHyd)
Administration group 3: 2 mg/kg of DAVBNH bonded polymer micelle (Example 1)
Administration group 4: 4 mg/kg of DAVBNH bonded polymer micelle (Example 1)
Administration group 5: 16 mg/kg of DAVBNH bonded polymer micelle (Example 1)

[5] = system: U87MG serving as a glioma cell strain; assay: Cytotoxicity test against brain tumor cells (cell-counting kit-8); assay type: cell-based; settings: Homo sapiens, U-87 MG
Experimental: The in vitro cytotoxicity of the vinblastine sulfate and the drug conjugate (DAVBNH bonded polymer micelle of Example 1) was evaluated using cell-counting kit-8 with respect to U87MG serving as a glioma cell strain. The U87MG cells (3000 cells/well) were cultured in a DMEM medium containing 10% FBS using a 96-well plate. Thereafter, the U87MG cells were exposed to the vinblastine sulfate or the drug conjugate whose dose was different from that of the vinblastine sulfate. The cell survival rates after 48 hours and 72 hours from the exposure were acquired by measuring the formazan absorbance […] 450 nm.

[6] = system: pancreatic cancer cell strains; assay: Cytotoxicity test against pancreatic cancer cells; assay type: cell-based; settings: FIG. 31
Experimental: The cytotoxicity test was performed on the K252a-H bonded aromatic polymer micelle and the K252a-H bonded aliphatic polymer micelle using various pancreatic cancer cell strains in the same manner as described above. The BXPC3-F3 strain is a metastatic strain which became malignant by performing an operation of establishing a cancer cell strain metastasized to the liver after orthotopic transplant into a mouse, three times. Further, KP-3L is a metastatic strain (available from the cell bank of National Institutes of Biomedical Innovation, Health and Nutrition JCRB) obtained by establishing a cancer cell strain metastasized to the liver after human liver metastatic pancreatic cancer was transplanted to the spleen of a nude mouse.

[7] = mouse; cited from earlier work
[8] = Solubilization test in water; assay type: physicochemical; settings: distilled water, UV absorption spectrum of filtrate
Experimental: K252a-H powder was dissolved in distilled water or methanol at a ratio of 1 mg/mL and the solution was sufficiently mixed. Thereafter, the solution was filtered using a filter having a pore diameter of […]. The ultraviolet absorption spectrum of the filtrate prepared as described above was measured using a spectrophotometer (Jasco V670). Based on the results of FIG. 27, it was confirmed that K252a-H was only dissolved in water at a ratio of 1 μg/mL or less.
Meanwhile, the K252a-H bonded aromatic polymer micelle and the K252a-H bonded aliphatic polymer micelle were dissolved in water, and the concentration of K252a-H was measured using HPLC.

[9] = system: lung cancer cell strains listed in Table 4; assay: Cytotoxicity test against lung cancer cells; assay type: cell-based; settings: FIG. 29
Source text: Further, in the following example, the used cell strains were purchased from the cell bank of American Type Culture. Collection, ATCC or National Institutes of Biomedical Innovation, Health and Nutrition (JCRB). PC14 PE6 was distributed from Profession Hosho (Tottori University). As the culture medium, DMEM, RPMI, or E-MEM was used unless otherwise specified. Gefitinib, Afatinib, Erlotinib, Cisplatin, Pemetrexed, and Gemicitabine were purchased from Funakoshi Co., Ltd. Osimertinib was purchased from Sellek Chemicals LLC.
Thereafter, the 96-well plate was incubated.

[10] = system: head and neck cancer cell strains; assay: Cytotoxicity test against head and neck cancer cells; assay type: cell-based; settings: all head and neck cancer cell strains, FIG. 32
Experimental: The cytotoxicity test was performed on the K252a-H bonded aromatic polymer micelle and the K252a-H bonded aliphatic polymer micelle using various head and neck cancer cell strains in the same manner as described above. Further, CDDP indicates Cisplatin serving as a target treatment drug for head and neck cancer.

[11] = system: mesothelioma cell strain MSTO-211H; assay: Cytotoxicity test against mesothelioma cells; assay type: cell-based; settings: FIG. 33
Source text: Further, CDDP indicates Cisplatin serving as a target treatment drug for mesothelioma. Pemetrexed is also a target treatment drug for mesothelioma.

[12] = molecular target: T1, EGFR L858R (Homo sapiens, UniProt P00533, L858R); assay: Hot spot kinase profiling, EGFR mutation; assay type: biochemical; settings: 100 nM, ATP 10 μM, FIG. 40
T1 construct: purchased Reaction Biology Corporation
Experimental: (§6) The kinase profiling of K252a-H was performed using Monthly 202 mutant kinase panel by entrustment with Reaction Biology Corporation. The conditions for the kinase assay are as follows. KK252a was dissolved in DMSO and the assay was performed at 100 nM.
(§7) Buffer condition: 20 mM HEPES, pH of 7.5, 10 mM MgCl2, 1 mM EGTA, (in a case of being applicable, 2 mM MnCl2)

[13] = molecular target: T2, EGFR T790M (Homo sapiens, UniProt P00533, T790M); assay: Hot spot kinase profiling, EGFR mutation; assay type: biochemical; settings: 100 nM, ATP 10 μM, FIG. 40
T2 construct: purchased Reaction Biology Corporation
Experimental: as §6, §7

[14] = molecular target: T3, EGFR d746-750/T790M (Homo sapiens, UniProt P00533, DEL746-750/T790M); assay: Hot spot kinase profiling, EGFR mutation; assay type: biochemical; settings: 100 nM, ATP 10 μM, FIG. 40
T3 construct: purchased Reaction Biology Corporation
Experimental: as §6, §7

[15] = molecular target: T4, EGFR d746-750/T790M/C797S (Homo sapiens, UniProt P00533, C797S/DEL746-750/T790M); assay: Hot spot kinase profiling, EGFR mutation; assay type: biochemical; settings: 100 nM, ATP 10 μM, FIG. 40
T4 construct: purchased Reaction Biology Corporation
Experimental: as §6, §7

[16] = system: Flt3; assay: Hot spot kinase profiling; assay type: biochemical; settings: 100 nM, ATP 10 μM
Experimental: as §6, §7

[17] = system: RET; assay: Hot spot kinase profiling; assay type: biochemical; settings: 100 nM, ATP 10 μM
Experimental: as §6, §7

[18] = system: c-kit; assay: Hot spot kinase profiling; assay type: biochemical; settings: 100 nM, ATP 10 μM
Experimental: as §6, §7

[19] = molecular target: mutant kinases (list of FIG. 42); assay: Hot spot kinase profiling, Monthly 202 mutant kinase panel; assay type: biochemical; settings: 100 nM, ATP 10 μM, mutant kinases listed in FIG. 42
Experimental: as §6, §7

[20] = malignant metastatic strain, compared with PC14

## COc1cc2ncnc(Nc3ccc(F)c(Cl)c3)c2cc1OCCCN1CCOCC1 [Gefitinib]
[1]
  cytotoxic activity against the PC14 strain: excellent cytotoxic activity
[2]
  cytotoxic activity against the PC14.PE6 strain: significantly decreased

## CN(C)C/C=C/C(=O)Nc1cc2c(Nc3ccc(F)c(Cl)c3)ncnc2cc1O[C@H]1CCOC1 [Afatinib]
[1]; FIGS. 29 and 30
  cytotoxic activity against the PC14 strain: excellent cytotoxic activity
[2]; [20]
  cytotoxic activity against the PC14.PE6 strain: significantly decreased

## C=CC(=O)Nc1cc(Nc2nccc(-c3cn(C)c4ccccc34)n2)c(OC)cc1N(C)CCN(C)C [Osimertinib]
[1]
  cytotoxic activity against the PC14 strain: excellent cytotoxic activity
[2]
  cytotoxic activity against the PC14.PE6 strain: significantly decreased

## CC[C@]1(O)C[C@@H]2CN(CCc3c([nH]c4ccccc34)[C@@](C(=O)OC)(c3cc4c(cc3OC)N(C)[C@H]3[C@@](O)(C(=O)NN)[C@H](O)[C@]5(CC)C=CCN6CC[C@]43[C@@H]65)C2)C1 [DAVBNH, desacetyl vinblastine hydrazide]
[3]; dose of 3 mg/kg, after only 25% of the treatment schedule
  weight loss: significant weight loss was observed
[3]; mice, four administrations
  lethal dose: 6 mg/kg
[4]; dose 2 mg/kg
  weight loss: a weight loss occurs
[4]; female, BALB/c Nude, mouse, in vivo, 2 mg/kg, mice, as used in Example 8
  MTD: 2 mg/kg

## CC[C@]1(O)C[C@@H]2CN(CCc3c([nH]c4ccccc34)[C@@](C(=O)OC)(c3cc4c(cc3OC)N(C)[C@H]3[C@@](O)(C(=O)OC)[C@H](OC(C)=O)[C@]5(CC)C=CCN6CC[C@]43[C@@H]65)C2)C1 [Vinblastine sulfate, vinblastine sulfate]
[5]; 48 hours from the exposure, read-out: IC50 48 hours
  IC50: 1.4 nM
[5]; 72 hours from the exposure, read-out: IC50 72 hours
  IC50: 1.7 nM

## Nc1ccn([C@@H]2O[C@H](CO)[C@@H](O)C2(F)F)c(=O)n1 [Gemcitabine]
[6]
  effect on K-ras mutant strains and malignant metastatic strains: not largely affected

## C#Cc1cccc(Nc2ncnc3cc(OCCOC)c(OCCOC)cc23)c1 [Erlotinib]
[6]
  effect on K-ras mutant strains and malignant metastatic strains: not largely affected

## CC[C@]1(O)C[C@@H]2CN(CCc3c([nH]c4ccccc34)[C@@](C(=O)OC)(c3cc4c(cc3OC)N(C)[C@H]3[C@@](O)(C(=O)OC)[C@H](OC(C)=O)[C@]5(CC)C=CCN6CC[C@]43[C@@H]65)C2)C1 [Vinblastine, vinblastine]
[7]
  maximum tolerated dose: 2 mg/kg

## CC12OC(CC1(O)C(=O)NN)n1c3ccccc3c3c4c(c5c6ccccc6n2c5c31)CNC4=O (centres unmarked) [Example K252a-H, K252a hydrazide]
[8]
  dissolved in water: ≤ 1 µg/mL
[9]
  cytotoxic activity against lung cancer having resistance to lung cancer treatment drugs of the related art: excellent cytotoxic activity
[2]; [20]
  cytotoxic activity against the PC14.PE6 strain: increased
[6]
  effect on K-ras mutant strains and malignant metastatic strains: effective for K-ras mutant strains and malignant metastatic strains
[10]
  cytotoxic activity compared with Cisplatin: higher cytotoxic activity against all head and neck cancer cell strains than that of Cisplatin
[11]
  cytotoxic activity compared with Cisplatin and Pemetrexed: higher cytotoxic activity than that of Cisplatin and Pemetrexed
[12]
  activity against EGFR gatekeeper mutation L858R: specifically high activity
[13]
  activity against EGFR gatekeeper mutation T790M: specifically high activity
[14]
  activity against EGFR gatekeeper mutation d746-750/T790M: specifically high activity
[15]
  activity against EGFR gatekeeper mutation d746-750/T790M/C797S: specifically high activity
[16]
  inhibition of oncogene Flt3: strong inhibitor
[17]
  inhibition of oncogene RET: strong inhibitor
[18]
  inhibition of oncogene c-kit: strong inhibitor
[19]
  kinase activity suppressed to: ≤ 30%
